PubChem BioAssay (NCI)
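Protocol summary: plate cells (96-well), add compound at 5 concentrations, incubate 48 h, interpolate endpoints linearly. The concentration for 50% growth inhibition is given as GI50. At the TGI there is no net growth.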

Key:
Experiment in all cases: DTP human tumour cell line panel, 48 h
786-0 renal = tested on: 786-0 renal
A498 renal = tested on: A498 renal
A549 NSCLC = tested on: A549 NSCLC
ACHN renal = tested on: ACHN renal
BT-549 breast = tested on: BT-549 breast
CAKI-1 renal = tested on: CAKI-1 renal
CCRF-CEM leukemia = tested on: CCRF-CEM leukemia
COLO 205 colon = tested on: COLO 205 colon
DU-145 prostate = tested on: DU-145 prostate
EKVX NSCLC = tested on: EKVX NSCLC
HCC-2998 colon = tested on: HCC-2998 colon
HCT-116 colon = tested on: HCT-116 colon
HCT-15 colon = tested on: HCT-15 colon
HL-60(TB) leukemia = tested on: HL-60(TB) leukemia
HOP-62 NSCLC = tested on: HOP-62 NSCLC
HOP-92 NSCLC = tested on: HOP-92 NSCLC
HS 578T breast = tested on: HS 578T breast
HT29 colon = tested on: HT29 colon
IGROV1 ovarian = tested on: IGROV1 ovarian
K-562 leukemia = tested on: K-562 leukemia
KM12 colon = tested on: KM12 colon
LOX IMVI melanoma = tested on: LOX IMVI melanoma
M14 melanoma = tested on: M14 melanoma
MALME-3M melanoma = tested on: MALME-3M melanoma
MCF7 breast = tested on: MCF7 breast
MDA-MB-231 breast = tested on: MDA-MB-231 breast
MDA-MB-435 = tested on: MDA-MB-435
MOLT-4 leukemia = tested on: MOLT-4 leukemia
NCI-H226 lung = tested on: NCI-H226 lung
NCI-H23 lung = tested on: NCI-H23 lung
NCI-H460 lung = tested on: NCI-H460 lung
NCI-H522 lung = tested on: NCI-H522 lung
NCI/ADR-RES ovarian = tested on: NCI/ADR-RES ovarian
OVCAR-3 ovarian = tested on: OVCAR-3 ovarian
OVCAR-4 ovarian = tested on: OVCAR-4 ovarian
OVCAR-5 ovarian = tested on: OVCAR-5 ovarian
OVCAR-8 ovarian = tested on: OVCAR-8 ovarian
PC-3 prostate = tested on: PC-3 prostate
RPMI-8226 leukemia = tested on: RPMI-8226 leukemia
RXF 393 renal = tested on: RXF 393 renal
SF-268 CNS = tested on: SF-268 CNS
SF-295 CNS = tested on: SF-295 CNS
SF-539 CNS = tested on: SF-539 CNS
SK-MEL-2 melanoma = tested on: SK-MEL-2 melanoma
SK-MEL-28 melanoma = tested on: SK-MEL-28 melanoma
SK-MEL-5 melanoma = tested on: SK-MEL-5 melanoma
SK-OV-3 ovarian = tested on: SK-OV-3 ovarian
SNB-19 CNS = tested on: SNB-19 CNS
SNB-75 CNS = tested on: SNB-75 CNS
SR leukemia = tested on: SR leukemia
SW-620 colon = tested on: SW-620 colon
T-47D breast = tested on: T-47D breast
TK-10 renal = tested on: TK-10 renal
U251 CNS = tested on: U251 CNS
UACC-257 melanoma = tested on: UACC-257 melanoma
UO-31 renal = tested on: UO-31 renal

Work on `C=C1C(=O)O[C@H]2[C@H]1CC/C(COC(=O)NCCc1ccc(Br)cc1)=C\CC[C@@]1(C)O[C@@H]21` yielded a GI50 (786-0 renal) of 1040 nM, a TGI (786-0 renal) of 2400 nM and a GI50 (A498 renal) of 2070 nM. The TGI (A498 renal) was 4210 nM, the GI50 (A549 NSCLC) was 2590 nM and the TGI (A549 NSCLC) was 6170 nM. The GI50 (ACHN renal) was 1320 nM, the TGI (ACHN renal) was 2780 nM and the GI50 (BT-549 breast) was 1100 nM. The TGI (BT-549 breast) was 2600 nM, the GI50 (CAKI-1 renal) was 1420 nM and the TGI (CAKI-1 renal) was 2770 nM. It also gave a GI50 (CCRF-CEM leukemia) of 279 nM, a TGI (CCRF-CEM leukemia) of 847 nM and a GI50 (COLO 205 colon) of 1820 nM. The TGI (COLO 205 colon) was 3570 nM, the GI50 (DU-145 prostate) was 771 nM and the TGI (DU-145 prostate) was 2040 nM. For the same compound, the GI50 (EKVX NSCLC) was 1540 nM, the TGI (EKVX NSCLC) was 3290 nM and the GI50 (HCC-2998 colon) was 1710 nM. The TGI (HCC-2998 colon) was 3370 nM, the GI50 (HCT-116 colon) was 477 nM and the TGI (HCT-116 colon) was 1810 nM. It also gave a GI50 (HCT-15 colon) of 1010 nM, a TGI (HCT-15 colon) of 2330 nM and a GI50 (HL-60(TB) leukemia) of 1060 nM. For the same compound, the TGI (HL-60(TB) leukemia) was 3970 nM, the GI50 (HOP-62 NSCLC) was 1990 nM and the TGI (HOP-62 NSCLC) was 4400 nM. For the same compound, the GI50 (HOP-92 NSCLC) was 1280 nM, the TGI (HOP-92 NSCLC) was 2770 nM and the GI50 (HS 578T breast) was 2410 nM. For the same compound, the TGI (HS 578T breast) was 7150 nM, the GI50 (HT29 colon) was 1320 nM and the TGI (HT29 colon) was 3380 nM. The GI50 (IGROV1 ovarian) was 1080 nM, the TGI (IGROV1 ovarian) was 2590 nM and the GI50 (K-562 leukemia) was 535 nM. It also gave a TGI (K-562 leukemia) of 5610 nM, a GI50 (KM12 colon) of 1950 nM and a TGI (KM12 colon) of 4460 nM. For the same compound, the GI50 (LOX IMVI melanoma) was 1180 nM, the TGI (LOX IMVI melanoma) was 2580 nM and the GI50 (M14 melanoma) was 1260 nM. For the same compound, the TGI (M14 melanoma) was 2730 nM, the GI50 (MALME-3M melanoma) was 2090 nM and the TGI (MALME-3M melanoma) was 3770 nM. The GI50 (MCF7 breast) was 417 nM, the TGI (MCF7 breast) was 1820 nM and the GI50 (MDA-MB-231 breast) was 1420 nM. It also gave a TGI (MDA-MB-231 breast) of 3080 nM, a GI50 (MDA-MB-435) of 1280 nM and a TGI (MDA-MB-435) of 2810 nM. It also gave a GI50 (MOLT-4 leukemia) of 1690 nM, a TGI (MOLT-4 leukemia) of 4800 nM and a GI50 (NCI-H226 lung) of 1720 nM. It also gave a TGI (NCI-H226 lung) of 3370 nM, a GI50 (NCI-H23 lung) of 1720 nM and a TGI (NCI-H23 lung) of 3840 nM. For the same compound, the GI50 (NCI-H460 lung) was 2060 nM, the TGI (NCI-H460 lung) was 4640 nM and the GI50 (NCI-H522 lung) was 1160 nM. For the same compound, the TGI (NCI-H522 lung) was 2730 nM, the GI50 (NCI/ADR-RES ovarian) was 2260 nM and the TGI (NCI/ADR-RES ovarian) was 6740 nM. It also gave a GI50 (OVCAR-3 ovarian) of 984 nM, a TGI (OVCAR-3 ovarian) of 2270 nM and a GI50 (OVCAR-4 ovarian) of 1560 nM. The TGI (OVCAR-4 ovarian) was 3290 nM, the GI50 (OVCAR-5 ovarian) was 1960 nM and the TGI (OVCAR-5 ovarian) was 4470 nM. The GI50 (OVCAR-8 ovarian) was 1490 nM, the TGI (OVCAR-8 ovarian) was 3690 nM and the GI50 (PC-3 prostate) was 1730 nM. The TGI (PC-3 prostate) was 3320 nM, the GI50 (RPMI-8226 leukemia) was 624 nM and the TGI (RPMI-8226 leukemia) was 2890 nM. It also gave a GI50 (RXF 393 renal) of 1200 nM, a TGI (RXF 393 renal) of 2680 nM and a GI50 (SF-268 CNS) of 1560 nM. For the same compound, the TGI (SF-268 CNS) was 3190 nM, the GI50 (SF-295 CNS) was 3810 nM and the TGI (SF-295 CNS) was 15500 nM. It also gave a GI50 (SF-539 CNS) of 1460 nM, a TGI (SF-539 CNS) of 2880 nM and a GI50 (SK-MEL-2 melanoma) of 1580 nM. For the same compound, the TGI (SK-MEL-2 melanoma) was 3170 nM, the GI50 (SK-MEL-28 melanoma) was 1470 nM and the TGI (SK-MEL-28 melanoma) was 3120 nM. The GI50 (SK-MEL-5 melanoma) was 1710 nM, the TGI (SK-MEL-5 melanoma) was 3220 nM and the GI50 (SK-OV-3 ovarian) was 10800 nM. The TGI (SK-OV-3 ovarian) was 22800 nM, the GI50 (SNB-19 CNS) was 1390 nM and the TGI (SNB-19 CNS) was 2970 nM. The GI50 (SNB-75 CNS) was 1200 nM, the TGI (SNB-75 CNS) was 2450 nM and the GI50 (SR leukemia) was 430 nM. It also gave a TGI (SR leukemia) of 2910 nM, a GI50 (SW-620 colon) of 711 nM and a TGI (SW-620 colon) of 2400 nM. It also gave a GI50 (T-47D breast) of 1380 nM, a TGI (T-47D breast) of 3720 nM and a GI50 (TK-10 renal) of 1730 nM. It also gave a TGI (TK-10 renal) of 3120 nM, a GI50 (U251 CNS) of 1400 nM and a TGI (U251 CNS) of 2750 nM. For the same compound, the GI50 (UACC-257 melanoma) was 1630 nM, the TGI (UACC-257 melanoma) was 3090 nM and the GI50 (UO-31 renal) was 1550 nM. It also gave a TGI (UO-31 renal) of 2950 nM.
